Tested on: Mus musculus
Assay: Hepatotoxicity in Kunming mouse assessed as increase in number of inflammatory cells in portal fields of liver at 3 mg/kg, po for 6 days by hematoxylin and eosin-staining based microscopic analysis
Assay type: toxicity, organism-based
Conditions: in vivo, 144 h

SMILES	Activity
CN1[C@@H]2C[C@@H](OC(=O)[C@H](CO)c3ccccc3)C[C@H]1[C@@H]1O[C@H]12	Non-Toxic

Tested on: Mus musculus
Assay: Hepatotoxicity in Kunming mouse assessed as distinct fatty degeneration in hepatocytes at 3 mg/kg, po for 6 days by hematoxylin and eosin-staining based microscopic analysis
Assay type: toxicity, organism-based
Conditions: in vivo, 144 h

SMILES	Activity
CN1[C@@H]2C[C@@H](OC(=O)[C@H](CO)c3ccccc3)C[C@H]1[C@@H]1O[C@H]12	Non-Toxic

Tested on: Mus musculus
Assay: Hepatotoxicity in Kunming mouse assessed as area of necrosis in hepatocytes at 3 mg/kg, po for 6 days by hematoxylin and eosin-staining based microscopic analysis
Assay type: toxicity, organism-based, Hepatocyte
Conditions: 144 h

SMILES	Activity
CN1[C@@H]2C[C@@H](OC(=O)[C@H](CO)c3ccccc3)C[C@H]1[C@@H]1O[C@H]12	Non-Toxic

Target: Cholinesterase (Equus caballus, UniProt P81908)
Assay: not given
Conditions: not given

Sequence of Cholinesterase (Equus caballus, UniProt P81908) (P81908 whole entry): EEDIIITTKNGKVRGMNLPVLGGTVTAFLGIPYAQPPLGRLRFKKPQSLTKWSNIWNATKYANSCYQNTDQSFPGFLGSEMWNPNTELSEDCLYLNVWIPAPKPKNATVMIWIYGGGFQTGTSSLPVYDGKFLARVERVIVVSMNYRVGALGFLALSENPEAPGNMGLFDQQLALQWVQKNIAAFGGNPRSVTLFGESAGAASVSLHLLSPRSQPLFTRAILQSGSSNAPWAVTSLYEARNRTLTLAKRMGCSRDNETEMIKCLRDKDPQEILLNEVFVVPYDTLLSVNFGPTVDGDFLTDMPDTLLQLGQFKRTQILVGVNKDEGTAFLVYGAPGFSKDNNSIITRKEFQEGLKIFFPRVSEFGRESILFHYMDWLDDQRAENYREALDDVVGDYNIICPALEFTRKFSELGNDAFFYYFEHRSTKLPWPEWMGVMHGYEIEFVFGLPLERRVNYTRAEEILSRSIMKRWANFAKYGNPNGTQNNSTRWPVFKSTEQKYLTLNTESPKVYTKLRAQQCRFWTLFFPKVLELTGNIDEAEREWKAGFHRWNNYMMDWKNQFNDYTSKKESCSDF

SMILES	IC50
COc1cc2c(cc1OC)C(=O)C(CC1CCN(Cc3cccc(Br)n3)CC1)C2 (stereo not given)	17.5 µM
COc1cc2c(cc1OC)C(=O)C(CC1CCN(Cc3ccc(F)cc3)CC1)C2 (stereo not given)	2.31 µM
COc1cc2c(cc1OC)C(=O)C(CC1CCN(Cc3ccccc3C)CC1)C2 (stereo not given)	38.1 µM
COc1cc2c(cc1OC)C(=O)C(CC1CCN(Cc3ccc4cccc(O)c4n3)CC1)C2 (stereo not given)	4.53 µM
COc1cc2c(cc1OC)C(=O)C(CC1CCN(Cc3ccc(C(F)(F)F)cc3)CC1)C2 (stereo not given)	3.98 µM
COc1cc2c(cc1OC)C(=O)C(CC1CCN(Cc3cccc([N+](=O)[O-])c3)CC1)C2 (stereo not given)	42.4 µM

Target: Acetylcholinesterase (Electrophorus electricus, UniProt O42275)
Assay: not given
Conditions: not given

Sequence of Acetylcholinesterase (Electrophorus electricus, UniProt O42275) (O42275 whole entry): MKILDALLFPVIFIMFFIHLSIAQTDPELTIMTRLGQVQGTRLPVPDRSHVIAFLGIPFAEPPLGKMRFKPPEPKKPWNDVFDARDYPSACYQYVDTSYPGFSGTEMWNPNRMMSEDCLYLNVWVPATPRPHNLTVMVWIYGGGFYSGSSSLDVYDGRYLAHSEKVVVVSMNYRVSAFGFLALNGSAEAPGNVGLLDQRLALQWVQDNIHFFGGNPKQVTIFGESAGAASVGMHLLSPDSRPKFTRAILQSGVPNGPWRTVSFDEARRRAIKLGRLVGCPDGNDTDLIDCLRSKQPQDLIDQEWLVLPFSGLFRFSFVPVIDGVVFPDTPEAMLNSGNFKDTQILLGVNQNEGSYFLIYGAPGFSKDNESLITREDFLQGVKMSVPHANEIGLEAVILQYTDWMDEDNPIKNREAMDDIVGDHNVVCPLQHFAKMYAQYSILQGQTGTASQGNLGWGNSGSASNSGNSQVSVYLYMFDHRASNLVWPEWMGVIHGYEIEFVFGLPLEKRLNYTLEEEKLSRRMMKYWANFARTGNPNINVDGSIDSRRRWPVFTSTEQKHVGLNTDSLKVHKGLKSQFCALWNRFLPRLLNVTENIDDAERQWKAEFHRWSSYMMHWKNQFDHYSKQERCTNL

SMILES	IC50
COc1cc2c(cc1OC)C(=O)C(CC1CCN(Cc3cccc(Br)n3)CC1)C2 (stereo not given)	0.253 µM
COc1cc2c(cc1OC)C(=O)C(CC1CCN(Cc3ccc(F)cc3)CC1)C2 (stereo not given)	0.13 µM
COc1cc2c(cc1OC)C(=O)C(CC1CCN(Cc3ccccc3C)CC1)C2 (stereo not given)	0.184 µM
COc1cc2c(cc1OC)C(=O)C(CC1CCN(Cc3ccc4cccc(O)c4n3)CC1)C2 (stereo not given)	6.42 µM
COc1cc2c(cc1OC)C(=O)C(CC1CCN(Cc3ccc(C(F)(F)F)cc3)CC1)C2 (stereo not given)	2.03 µM
COc1cc2c(cc1OC)C(=O)C(CC1CCN(Cc3cccc([N+](=O)[O-])c3)CC1)C2 (stereo not given)	0.414 µM

Target: Acetylcholinesterase (Homo sapiens, UniProt P22303)
Assay: not given
Conditions: not given

Sequence of Acetylcholinesterase (Homo sapiens, UniProt P22303) (P22303 whole entry): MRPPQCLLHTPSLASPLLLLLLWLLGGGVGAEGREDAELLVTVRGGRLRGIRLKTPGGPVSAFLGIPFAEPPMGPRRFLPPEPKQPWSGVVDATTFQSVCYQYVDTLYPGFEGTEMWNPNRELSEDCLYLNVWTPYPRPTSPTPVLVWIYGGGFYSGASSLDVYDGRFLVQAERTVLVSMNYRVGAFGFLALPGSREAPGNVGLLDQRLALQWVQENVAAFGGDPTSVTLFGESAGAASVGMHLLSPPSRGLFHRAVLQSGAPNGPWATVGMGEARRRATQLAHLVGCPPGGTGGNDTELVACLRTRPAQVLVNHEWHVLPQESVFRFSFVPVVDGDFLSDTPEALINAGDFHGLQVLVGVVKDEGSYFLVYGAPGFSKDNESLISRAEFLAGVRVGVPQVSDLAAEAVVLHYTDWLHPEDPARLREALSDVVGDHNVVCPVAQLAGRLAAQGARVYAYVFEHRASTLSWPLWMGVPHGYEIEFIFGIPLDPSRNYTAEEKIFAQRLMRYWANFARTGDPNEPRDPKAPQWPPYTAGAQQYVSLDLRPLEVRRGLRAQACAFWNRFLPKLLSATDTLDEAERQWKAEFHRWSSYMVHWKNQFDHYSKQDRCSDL

SMILES	IC50
COc1cc2c(cc1OC)C(=O)C(CC1CCN(Cc3cccc(Br)n3)CC1)C2 (stereo not given)	1.98 µM
COc1cc2c(cc1OC)C(=O)C(CC1CCN(Cc3ccc(F)cc3)CC1)C2 (stereo not given)	0.041 µM
COc1cc2c(cc1OC)C(=O)C(CC1CCN(Cc3ccccc3C)CC1)C2 (stereo not given)	0.243 µM
COc1cc2c(cc1OC)C(=O)C(CC1CCN(Cc3ccc4cccc(O)c4n3)CC1)C2 (stereo not given)	29.8 µM
COc1cc2c(cc1OC)C(=O)C(CC1CCN(Cc3ccc(C(F)(F)F)cc3)CC1)C2 (stereo not given)	5.43 µM
COc1cc2c(cc1OC)C(=O)C(CC1CCN(Cc3cccc([N+](=O)[O-])c3)CC1)C2 (stereo not given)	0.652 µM

Target: Cholinesterase (Homo sapiens, UniProt P06276)
Assay: not given
Conditions: not given

Sequence of Cholinesterase (Homo sapiens, UniProt P06276) (P06276 whole entry): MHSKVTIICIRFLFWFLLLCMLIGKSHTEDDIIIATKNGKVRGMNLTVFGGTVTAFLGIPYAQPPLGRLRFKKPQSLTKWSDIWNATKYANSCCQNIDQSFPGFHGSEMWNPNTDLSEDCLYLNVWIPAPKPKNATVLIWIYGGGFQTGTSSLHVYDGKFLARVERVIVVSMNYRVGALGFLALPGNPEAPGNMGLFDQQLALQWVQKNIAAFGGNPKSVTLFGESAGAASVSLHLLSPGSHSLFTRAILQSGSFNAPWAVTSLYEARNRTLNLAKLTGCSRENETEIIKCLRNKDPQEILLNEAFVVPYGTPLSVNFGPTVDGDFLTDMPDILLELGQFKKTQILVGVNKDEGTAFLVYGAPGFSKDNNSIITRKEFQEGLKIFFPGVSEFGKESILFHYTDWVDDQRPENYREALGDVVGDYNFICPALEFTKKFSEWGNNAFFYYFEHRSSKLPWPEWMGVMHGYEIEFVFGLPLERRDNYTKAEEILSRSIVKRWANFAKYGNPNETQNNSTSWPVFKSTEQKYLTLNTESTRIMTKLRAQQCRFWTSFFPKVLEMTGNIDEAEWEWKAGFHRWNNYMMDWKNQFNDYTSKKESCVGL

SMILES	IC50
COc1cc2c(cc1OC)C(=O)C(CC1CCN(Cc3ccc(F)cc3)CC1)C2 (stereo not given)	8.13 µM
COc1cc2c(cc1OC)C(=O)C(CC1CCN(Cc3ccc4cccc(O)c4n3)CC1)C2 (stereo not given)	37.4 µM

Target: Amyloid-beta precursor protein (Homo sapiens) (UniProt P05067)
Assay: not given
Conditions: at 20 µM

Sequence of Amyloid-beta precursor protein (Homo sapiens) (P05067 whole entry): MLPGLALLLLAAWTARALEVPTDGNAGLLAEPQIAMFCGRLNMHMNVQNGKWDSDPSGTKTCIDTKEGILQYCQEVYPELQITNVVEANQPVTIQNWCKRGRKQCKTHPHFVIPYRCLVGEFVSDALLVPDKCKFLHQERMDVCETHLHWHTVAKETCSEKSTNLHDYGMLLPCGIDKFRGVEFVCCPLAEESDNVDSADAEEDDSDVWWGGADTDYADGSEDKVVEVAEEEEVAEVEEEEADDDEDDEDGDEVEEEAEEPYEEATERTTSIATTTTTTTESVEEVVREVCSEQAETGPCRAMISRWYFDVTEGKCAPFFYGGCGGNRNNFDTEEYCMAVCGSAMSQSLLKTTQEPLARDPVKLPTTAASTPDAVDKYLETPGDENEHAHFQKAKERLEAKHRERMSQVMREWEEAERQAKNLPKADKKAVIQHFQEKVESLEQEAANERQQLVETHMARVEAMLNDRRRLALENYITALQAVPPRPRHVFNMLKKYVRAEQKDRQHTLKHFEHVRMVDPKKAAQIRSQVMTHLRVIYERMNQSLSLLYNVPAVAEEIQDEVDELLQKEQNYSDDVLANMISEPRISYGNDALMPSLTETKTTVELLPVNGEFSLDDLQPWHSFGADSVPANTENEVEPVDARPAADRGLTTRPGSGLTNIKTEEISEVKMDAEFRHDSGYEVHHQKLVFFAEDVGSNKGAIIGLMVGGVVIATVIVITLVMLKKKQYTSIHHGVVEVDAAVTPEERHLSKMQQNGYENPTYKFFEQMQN

SMILES	inhibition
COc1cc2c(cc1OC)C(=O)C(CC1CCN(Cc3ccc4cccc(O)c4n3)CC1)C2 (stereo not given)	44.8%

Tested on: not listed separately
Assay: in vitro
Conditions: PAMPA
Description: Effective permeability of the compound after 18 hrs by PAMPA

SMILES	Papp at 18 h
COc1cc2c(cc1OC)C(=O)C(CC1CCN(Cc3ccc4cccc(O)c4n3)CC1)C2 (stereo not given)	6.1 ×10⁻⁶ cm/s

Reference: ChEMBL document CHEMBL3870312, “Rational modification of donepezil as multifunctional acetylcholinesterase inhibitors for the treatment of Alzheimer's disease” (Eur J Med Chem, 2016)
